Experiments:
STAT1 = assay: IFN-γ induced STAT1 phosphorylation, Western blot, MDA-MB-231 cells; type: cell-based, human; conditions: pretreated 2 hours, 50 ng/ml IFN-γ 30 minutes
Protocol: (§1) (A) The chemical structures of LLL12B and LLL12. The carbamate ester bond of LLL12B is hydrolytically cleaved by the tumor-associated plasmin to release LLL12. (B) SUM159 cells were seeded in a 6-well plate and treated with LLL12B for 8 hours. Cells were stained with Phospho-Stat3 (Tyr705) and DAPI (indicated by arrows). Green: P-STAT3 (Y705); Blue: DAPI. T47D (C) and MDA-MB-231 (D) breast cancer cells were pretreated with DMSO or LLL12B in a serum-free medium for 2 hours and stimulated with 50 ng/ml of IL-6, IFN-γ, or EGF for additional 30 minutes. Cells were collected and analyzed by Western blot. GAPDH served as a protein loading control.
(§2) Western blot. Cells were collected and total protein was extracted using cell lysis buffer (Cell Signaling Technology, Danvers, MA, USA). Protein concentration was determined using the Pierce BCA Protein Assay Kit (Thermo Fisher Scientific, Waltham, MA, USA) according to the manufacturer's instructions. Equal amounts of protein were separated by 10% SDS-PAGE gels and transferred to PVDF membranes. Membranes were blocked in 5% non-fat milk at room temperature and probed with specific antibodies P-STAT3 (Y705), STAT3, Cyclin D1, Cleaved Caspase-3, P-STAT1 (Y701), STAT1, P-ERK, ERK or GAPDH (1:1000, Cell Signaling Technology, Danvers, MA, USA) at 4° C. overnight. […]

ERK = assay: EGF induced ERK phosphorylation, Western blot, MDA-MB-231 cells; type: cell-based, human; conditions: pretreated 2 hours, 50 ng/ml EGF 30 minutes
Protocol: as §1, §2

STAT3 [1] = assay: Western blot of P-STAT3 (Y705), STAT3, Cyclin D1, Cleaved Caspase-3 in MDA-MB-231 cells; type: cell-based, human; conditions: MDA-MB-231, overnight
Protocol: (A) MDA-MB-231, SUM159, and 4T1 cell lines were treated with DMSO or LLL12B overnight and the expression levels of P-STAT3 (Y705), STAT3, Cyclin D1, and Cleaved Caspase-3 were analyzed by Western blot. GAPDH served as a protein loading control. (B) MDA-MB-231 cells were treated with DMSO or C188-9 overnight and the expression levels of P-STAT3 (Y705), STAT3, Cyclin D1, and Cleaved Caspase-3 were analyzed by Western blot. (C) MDA-MB-231, SUM159, and 4T1 cells were seeded in a 96-well plate and treated with DMSO or LLL12B for 5 hours and a Caspase-3/7 Fluorescence Assay Kit was used to detect the activation of caspase-3/7. (D) MDA-MB-231, SUM159, and 4T1 cell lines were treated with DMSO or LLL12B for 8-12 hours, and flow cytometry was performed to analyze annexin V and PI staining. The quantification of apoptotic cells was shown in the right panel. ** P<0.01, *** P<0.001 and ****P<0.0001.
SiRNA and transfection. STAT3 siRNA and Negative Control siRNA (Cell Signaling Technology, Danvers, MA, USA) were used to knock down STAT3 in MDA-MB-231, SUM159, and 4T1 cell lines. Cells were transfected with STAT3 siRNA or Negative Control siRNA using Lipofectamine RNAiMAX (Invitrogen, Carlsbad, CA, USA) according to the manufacturer's instructions. After 72 hours, cell viability was examined by MTT cell viability assay, and the transfection efficiency was examined by western blot.
Western blot. Cells were collected and total protein was extracted using cell lysis buffer (Cell Signaling Technology, Danvers, MA, USA). Protein concentration was determined using the Pierce BCA Protein Assay Kit (Thermo Fisher Scientific, Waltham, MA, USA) according to the manufacturer's instructions. Equal amounts of protein were separated by 10% SDS-PAGE gels and transferred to PVDF membranes. Membranes were blocked in 5% non-fat milk at room temperature and probed with specific antibodies P-STAT3 (Y705), STAT3, Cyclin D1, Cleaved Caspase-3, P-STAT1 (Y701), STAT1, P-ERK, ERK or GAPDH (1:1000, Cell Signaling Technology, Danvers, MA, USA) at 4° C. overnight. The blots were visualized using SuperSignal™ West Femto Maximum Sensitivity Substrate (Thermo Fisher Scientific, Waltham, MA, USA) and an Amersham Imager 680 (GE Healthcare Life Sciences, Marlborough, MA, USA) after incubating with horseradish peroxidase (HRP)-conjugated anti-rabbit secondary antibody (1:5000, Cell Signaling Technology, Danvers, MA, USA).

caspase-3/7 = assay: Caspase-3/7 activity assay, MDA-MB-231 cells; type: cell-based, human; conditions: MDA-MB-231, 5 hours, vs DMSO
Protocol: Caspase-3/7 activity assay. The Caspase-3/7 Fluorescence Assay Kit (Cayman, Ann Arbor, MI, USA) was used to detect the activation of caspase-3/7 and the assay was performed according to the manufacturer's instructions. Briefly, MDA-MB-231, SUM159, and 4T1 cells were seeded in a 96-well plate in triplicate. After overnight incubation, cells were treated with either LLL12B or DMSO for 5 hours. Cells were lysed and processed to measure caspase-3/7 activity and the fluorescence intensity was read (excitation=485 nm; emission=535 nm).

MDA-MB-231 cells = assay: Colony formation assay, MDA-MB-231 cells; type: cell-based, human; conditions: MDA-MB-231, 24 hours treatment, 7 days drug-free, vs DMSO
Protocol: Colony formation assay. MDA-MB-231, SUM159, and 4T1 cells were seeded in a 6-well plate at a density of 1000 cells/well and treated with DMSO or LLL12B for 24 hours, and then cultured in a drug-free culture medium for 7 days. Colonies were fixed with methanol for 30 min and stained with 1% crystal violet in 25% methanol for 2 hours at room temperature.

SUM159 cells = assay: Wound healing assay, SUM159 cells; type: cell-based, human; conditions: SUM159, vs DMSO
Protocol: Wound healing assay. MDA-MB-231, SUM159, and 4T1 cells were seeded in a 6-well plate and cultured until fully confluent. A straight scratch crossing the monolayer was created using a 200 μl pipette tip and images of scratched areas were taken. Next, cells were treated with DMSO or LLL12B. Then, images were taken until the scratch of DMSO-treated cells was closed and the relative migration (%) was calculated.
Given the relevance between cancer cell migration and metastasis, cell migration was evaluated using wound healing assay following LLL12B and Talazoparib treatment.
In FIG. 12, L: LLL12B; T: Talazoparib; L0.5:0.5 μM LLL12B; L0.25:0.25 μM LLL12B; T0.5:0.5 μM Talazoparib; T10: 10 μM Talazoparib. In FIG. 13, L: LLL12B; T: Talazoparib; L0.5:0.5μ M LLL12B; T10: 10μ M Talazoparib; T20: 20μ M Talazoparib. In FIG. 14, L: LLL12B; T: Talazoparib; L0.5:0.5μ M LLL12B; T10: 10μ M Talazoparib; T20: 20μ M Talazoparib.
L: LLL12B; A: Abemaciclib; L0.5:0.5 μM LLL12B; A2.5:2.5 μM Abemaciclib; A1: 1 μM Abemaciclib

STAT3 [2] = conditions: human medulloblastoma cells, refs [25,31]; cited from earlier work

## CN(C)C(=O)Oc1cccc2c1C(=O)c1cccc(S(N)(=O)=O)c1C2=O [LLL12B]
STAT1
  induction of P-STAT1 (Y701) stimulated by IFN-γ: did not inhibit
ERK
  inhibition of P-ERK stimulated by EGF: little effect
STAT3 [1]
  concentration that inhibited P-STAT3 and Cyclin D1 in Western blot: 1 µM
STAT3 [1]; vs DMSO
  Cyclin D1 expression: decreased
  expression of Cleaved Caspase-3: enhanced
  phosphorylation of STAT3: decreased
caspase-3/7
  activation of caspase-3/7: induced the activation
MDA-MB-231 cells
  colony numbers: significant reduction
SUM159 cells
  wound closure (cell migration): effectively inhibited
STAT3 [2]
  IL-6 induced STAT3 phosphorylation: inhibited
